Test system: L-Traf3/PtenDKO mouse
Experiment: Oral NIKSMI in L-Traf3/PtenDKO mouse: liver HE staining, KRT19 immunostaining and KRT19 expression
Format: in vivo
Details: twice a day, 200 mg/kg
Procedure: A histopathological slide was deparaffinized with xylene and ethanol. HE staining was performed with hematoxylin and eosin. In immunostaining, antigen activation was performed by heating in Target Retrieval Solution (Dako, USA), followed by blocking with bovine serum albumin and a reaction through use of a primary antibody at 4° C. overnight. A frozen section was dried at room temperature, and was blocked with BSA (Nacalai Tesque, Inc., Japan), followed by a reaction through use of a primary antibody in VECTASTAIN ABC Rabbit IgG Kit (Vector Laboratories, Inc., USA). DAB Substrate Kit (Vector Laboratories, Inc., USA) was used in a staining reaction. The following antibodies were used in the immunostaining: KRT19 (1:500 Abcam, ab52625), TRAF3 (1:100 Abcam, ab217033), NIK (1:400 Novus Biologicals, NBP2-23603), p-RIP3K (1:100 Genentech), and KI67 (1:1,000 Cell Signaling, #12202S). […] The number of Ki67-positive cells in a tumor was counted with ImageJ (Fiji). The immunostaining score of TRAF3 or NIK was calculated by multiplying a staining intensity (of from 0 to 3) by a stained area (%). Human ICC patients were grouped into two groups on the basis of the median immunostaining score of TRAF3 or NIK, and were evaluated for their disease-free survival (DFS) or overall survival (OS). […]

For `COc1cc(C(N)=O)nc(-c2cccc(C#C[C@]3(O)CCN(C)C3=O)c2)c1` [NIKSMI, (R)-6-(3-((3-hydroxy-1-methyl-2-oxopyrrolidin-3-yl)ethynyl)phenyl)-4-methoxypicolinamide], which “overgrowth of a cholangiocyte in liver (HE staining, KRT19 immunostaining)” value (14 days from age 4 weeks, liver at 6 weeks, FIG. 15A) is on record?
The value was “significantly suppressed”.

What about the “expression level of the bile duct marker KRT19 in the liver” value (14 days, FIG. 15B) of the same molecule?
Its value is “significantly suppressed”.

From patent US20240285599A1, “Mature-Hepatocyte Transdifferentiation Suppressing Composition” (OSAKA UNIVERSITY, priority 2021, published 2024)
